{"source": "PubChem BioAssay (NCI)", "assay_in_all_cases": "NCI tumour cell line growth inhibition, 48 h", "key": {"DMS 273 small cell lung": {"test_system": "DMS 273 small cell lung"}, "SNB-78 CNS": {"test_system": "SNB-78 CNS"}, "SN12K1 renal": {"test_system": "SN12K1 renal"}, "DMS 114 small cell lung": {"test_system": "DMS 114 small cell lung"}, "P388 leukemia": {"test_system": "P388 leukemia"}, "DLD-1 colon": {"test_system": "DLD-1 colon"}, "HOP-18 NSCLC": {"test_system": "HOP-18 NSCLC"}, "XF 498 CNS": {"test_system": "XF 498 CNS"}, "M19-MEL melanoma": {"test_system": "M19-MEL melanoma"}}, "note": "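Cultured in 96-well plates, cells were exposed to test compound for 48 hours across five concentrations. TGI marks complete inhibition of growth.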", "data": [{"compound": "CCC1=CC2CN3CCc4c([nH]c5ccccc45)C(C(=O)OC)(C2)C13", "note": "(centres undefined)", "values": [{"measurement": "TGI", "setting": "DMS 273 small cell lung", "value": 91, "unit": "µM"}, {"measurement": "TGI", "setting": "SNB-78 CNS", "value": 167, "unit": "µM"}, {"measurement": "TGI", "setting": "SN12K1 renal", "value": 39.6, "unit": "µM"}, {"measurement": "TGI", "setting": "DMS 114 small cell lung", "value": 85.1, "unit": "µM"}, {"measurement": "TGI", "setting": "P388 leukemia", "value": 93.1, "unit": "µM"}, {"measurement": "TGI", "setting": "DLD-1 colon", "value": 87.5, "unit": "µM"}, {"measurement": "TGI", "setting": "HOP-18 NSCLC", "value": "> 30", "unit": "µM"}, {"measurement": "TGI", "setting": "XF 498 CNS", "value": 76.3, "unit": "µM"}, {"measurement": "TGI", "setting": "M19-MEL melanoma", "value": 85.8, "unit": "µM"}]}]}
